In article PMC7881204, “A small-molecular inhibitor against Proteus mirabilis urease to treat catheter-associated urinary tract infections” (Scientific Reports, 2021):

Tests used:
[1] = target: T1, urease (Canavalia ensiformis, UniProt P07374); assay: colorimetric urease assay (phenol red), Dixon plot; IC50 […]; format: biochemical
T1 construct: Type III powder, urease from C. ensiformis (Merck)

[2] = target: T1, urease; assay: colorimetric urease assay (phenol red), dose-response; format: biochemical

T1 sequence (P07374 whole entry, looked up): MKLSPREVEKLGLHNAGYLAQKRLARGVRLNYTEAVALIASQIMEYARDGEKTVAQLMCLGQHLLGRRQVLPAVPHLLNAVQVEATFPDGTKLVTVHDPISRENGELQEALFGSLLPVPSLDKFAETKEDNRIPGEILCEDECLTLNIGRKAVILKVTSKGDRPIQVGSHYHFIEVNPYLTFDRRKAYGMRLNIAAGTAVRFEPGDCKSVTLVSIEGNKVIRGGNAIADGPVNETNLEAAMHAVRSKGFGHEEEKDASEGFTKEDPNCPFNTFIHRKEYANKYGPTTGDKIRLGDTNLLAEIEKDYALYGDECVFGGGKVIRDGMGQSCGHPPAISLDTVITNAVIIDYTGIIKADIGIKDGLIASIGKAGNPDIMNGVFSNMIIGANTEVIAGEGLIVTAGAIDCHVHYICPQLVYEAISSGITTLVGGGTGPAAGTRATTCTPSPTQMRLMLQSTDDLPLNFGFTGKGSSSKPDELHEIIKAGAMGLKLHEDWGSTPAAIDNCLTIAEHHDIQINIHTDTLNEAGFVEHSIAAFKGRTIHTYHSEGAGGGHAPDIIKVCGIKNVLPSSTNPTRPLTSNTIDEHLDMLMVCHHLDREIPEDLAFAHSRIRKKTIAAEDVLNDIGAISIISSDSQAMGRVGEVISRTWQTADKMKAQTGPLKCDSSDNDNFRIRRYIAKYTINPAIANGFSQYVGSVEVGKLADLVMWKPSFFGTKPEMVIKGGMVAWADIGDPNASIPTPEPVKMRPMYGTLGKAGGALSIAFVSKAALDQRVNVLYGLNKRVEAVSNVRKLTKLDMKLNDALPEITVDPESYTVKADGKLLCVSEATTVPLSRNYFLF

| Structure (SMILES) | Ki [1] [mM] | IC50 [2] [mM] |
| --- | --- | --- |
| NC(=O)CS [2-MA, 2-mercaptoacetamide] | 2.95 |  |
| CC(=O)NO [AHA, acetohydroxamic acid] |  | 4.8 |
